Measurements reported in patent publication US4027016A, “Everninomicin antibacterial derivatives, electrochemical method for their manufacture, method for their use as antibacterial agents, and pharmaceutical compositions useful therefor” (Schering Corporation, priority 1976, dated 1977).
Values after ≈ are worked out from the molar mass of the structure shown. Counter-ions that a name gives are not always drawn. Like-named read-outs stand apart in the source and are kept apart here.

How the values were obtained:
[1] = tested on: bacteria; conditions: known compounds, cited from earlier work
[2] = tested on: gram-positive bacteria; test: Antibacterial activity against gram-positive bacteria (in words); type: cell-based; conditions: for antibacterial activity in vitro against gram-positive bacteria: e.g. Staphylococcus aureus, Staph. 11631, Staph. W., Streptococcus pyogenes C, Strep. pyogenes C-203, Bacillus subtilis
[3] = tested on: bacteria which are resistant to other antibacterial agents; test: Antibacterial activity against resistant bacteria (in words); type: cell-based; conditions: resistant to penicillin, penicillinase-resistant penicillins, tetracycline, macrolides such as erythromycin, lincomycin
[4] = pKa; type: physicochemical
[5] = tested on: Staphylococcus aureus Strain Gray; test: Microbiological Activity (in vitro), Staphylococcus aureus Strain Gray; type: cell-based
[6] = tested on: Staphylococcus aureus Strain Ziegler; test: Microbiological Activity (in vitro), Staphylococcus aureus Strain Ziegler; type: cell-based
[7] = tested on: gram-negative bacteria; test: Antibacterial activity against gram-negative bacteria (in words); type: cell-based; conditions: certain gram-negative bacteria
[8] = Peak Serum Levels in Dogs; type: in vivo, dog; conditions: for Peak Serum Levels in Dogs: 10 mg/kg i.m., single dose, agar diffusion assay of serum
Experimental: In determining peak serum levels, the animal tested (e.g. dog) is given a single dose of 10 mg/kg of the everninomicin D derivative, blood samples are taken periodically, and the serum thereof is assayed for antibacterial activity by an agardiffusion-assay as described by Weinstein et al., Antimicrobial Agents and Chemotherapy, p. 24 (1964).

[9] = tested on: bacteria; test: Antibacterial activity, general (in words); conditions: when administered by injection
[10] = tested on: Staphylococcus aureus Strain Wood; test: Microbiological Activity (in vitro), Staphylococcus aureus Strain Wood; type: cell-based
[11] = tested on: Staphylococcus aureus Strain 59N; test: Microbiological Activity (in vitro), Staphylococcus aureus Strain 59N; type: cell-based; conditions: STRAIN59N
[12] = tested on: Staphylococcus aureus Strain 209B; test: Microbiological Activity (in vitro), Staphylococcus aureus Strain 209B; type: cell-based; conditions: STRAIN209B

COCC1OC(OC2OCC3OC4(OCC(O)(C(C)OC)C5OCOC54)OC3C2OC)C(OC)C(O)C1OC1OC(C)C(OC)C(OC2OC(C)C3OC4(CC(O)C(OC5CC(O)C(OC(=O)c6c(C)c(Cl)c(O)c(Cl)c6OC)C(C)O5)C(C)O4)OC3(C)C2O)C1O (stereo not shown) [desevernitrose everninomicin B]
antibacterial activity ([1]; U.S. Pat. No. 3,920,629): having anti-bacterial activity

COCC1OC(OC2OCC3OC4(OCC(O)(C(C)OC)C5OCOC54)OC3C2OC)C(OC)C(O)C1OC1OC(C)C(OC)C(OC2CC3(C)OC4(CC(O)C(OC5CC(OC6CC(C)(N=O)C(OC)C(C)O6)C(OC(=O)c6c(C)c(Cl)c(O)c(Cl)c6OC)C(C)O5)C(C)O4)OC3C(C)O2)C1O (stereo not shown) [nitrosoeverninomicin D]
antibacterial activity ([1]; U.S. Pat. No. 3,915,956): exhibit antibacterial activity

COCC1OC(OC2OCC3OC4(OCC(O)(C(C)OC)C5OCOC54)OC3C2OC)C(OC)C(O)C1OC1OC(C)C(OC)C(OC2CC3(C)OC4(CC(O)C(OC5CC(OC6CC(C)(NO)C(OC)C(C)O6)C(OC(=O)c6c(C)c(Cl)c(O)c(Cl)c6OC)C(C)O5)C(C)O4)OC3C(C)O2)C1O (stereo not shown) [hydroxylaminoeverninomicin D]
antibacterial activity ([1]; U.S. Pat. No. 3,915,956): exhibit antibacterial activity

COCC1OC(OC2OCC3OC4(OCC(O)C5OCOC54)OC3C2OC)C(OC)C(O)C1OC1OC(C)C(OC)C(OC2CC3(C)OC4(CC(O)C(OC5CC(O)C(OC(=O)c6c(C)c(Cl)c(O)c(Cl)c6OC)C(C)O5)C(C)O4)OC3C(C)O2)C1O (stereo not shown) [desevernitrose everninomicin C]
antibacterial activity ([1]; U.S. Pat. No. 3,920,629): having anti-bacterial activity

COCC1OC(OC2OCC3OC4(OCC(O)(C(C)OC)C5OCOC54)OC3C2OC)C(OC)C(O)C1OC1OC(C)C(OC)C(OC2OC(C)C3OC4(CC(O)C(OC5CC(OC6CC(C)(N=O)C(OC)C(C)O6)C(OC(=O)c6c(C)c(Cl)c(O)c(Cl)c6OC)C(C)O5)C(C)O4)OC3(C)C2O)C1O (stereo not shown) [nitrosoeverninomicin B]
antibacterial activity ([1]; U.S. Pat. No. 3,915,956): exhibit antibacterial activity

COCC1OC(OC2OCC3OC4(OCC(O)(C(C)OC)C5OCOC54)OC3C2OC)C(OC)C(O)C1OC1OC(C)C(OC)C(OC2OC(C)C3OC4(CC(O)C(OC5CC(OC6CC(C)(NO)C(OC)C(C)O6)C(OC(=O)c6c(C)c(Cl)c(O)c(Cl)c6OC)C(C)O5)C(C)O4)OC3(C)C2O)C1O (stereo not shown) [hydroxylaminoeverninomicin B]
antibacterial activity ([1]; U.S. Pat. No. 3,915,956): exhibit antibacterial activity

COCC1OC(OC2OCC3OC4(OCC(O)(C(C)OC)C5OCOC54)OC3C2OC)C(OC)C(O)C1OC1OC(C)C(OC)C(OC2OC(C)C3OC4(CC(O)C(OC5CC(OC6CC(C)(O)C(OC)C(C)O6)C(OC(=O)c6c(C)c(Cl)c(O)c(Cl)c6OC)C(C)O5)C(C)O4)OC3(C)C2O)C1O (stereo not shown) [everninomicin B-7]
inhibiting the growth of gram-positive bacteria [2]: antibacterial activity against gram-positive bacteria
antibacterial activity in vitro against gram-positive bacteria [2]: narrow spectrum antibacterial activity in vitro against gram-positive bacteria
antibacterial activity against resistant bacteria [3]: exhibit antibacterial activity against bacteria which are resistant to other antibacterial agents

COCC1OC(OC2OCC3OC4(OCC(O)(C(C)OC)C5OCOC54)OC3C2OC)C(OC)C(O)C1OC1OC(C)C(OC)C(OC2CC3(C)OC4(CC(O)C(OC5CC(O)C(OC(=O)c6c(C)c(Cl)c(O)c(Cl)c6OC)C(C)O5)C(C)O4)OC3C(C)O2)C1O (stereo not shown) [desevernitrose everninomicin D]
antibacterial activity ([1]; U.S. Pat. No. 3,920,629): having anti-bacterial activity
pKa [4]: 7.5

COCC1OC(OC2OCC3OC4(OCC(O)(C(C)OC)C5OCOC54)OC3C2OC)C(OC)C(O)C1OC1OC(C)C(OC)C(OC2CC3(C)OC4(CC(O)C(OC5CC(OC6CC(C)(O)C(OC)C(C)O6)C(OC(=O)c6c(C)c(Cl)c(O)c(Cl)c6OC)C(C)O5)C(C)O4)OC3C(C)O2)C1O [everninomicin D-7]
inhibiting the growth of gram-positive bacteria [2]: particularly effective in inhibiting the growth of gram-positive bacteria
antibacterial activity in vitro against gram-positive bacteria [2]: narrow spectrum antibacterial activity in vitro against gram-positive bacteria
MIC [5]: 0.3 µg/mL (≈ 0.199 µM)
MIC [6]: 0.75 µg/mL (≈ 0.497 µM)
susceptibility of gram-negative bacteria [7]: certain gram-negative bacteria are also susceptible
Peak Serum Levels in Dogs [8]: 15-60
absorption and serum levels in the dog ([8]; when administered by injection): rapidly absorbed, producing high serum levels in the dog
antibacterial activity relative to precursor hydroxylaminoeverninomicin D [9]: antibacterial activity comparable to that of the precursor hydroxylaminoeverninomicin D
MIC [10]: 0.75 µg/mL (≈ 0.497 µM)
MIC [11]: 0.075 µg/mL (≈ 0.0497 µM)
MIC [12]: 0.3 µg/mL (≈ 0.199 µM)
antibacterial activity against resistant bacteria [3]: exhibit antibacterial activity against bacteria which are resistant to other antibacterial agents

COCC1OC(OC2OCC3OC4(OCC(O)(C(C)OC)C5OCOC54)OC3C2OC)C(OC)C(O)C1OC1OC(C)C(OC)C(OC2CC3(C)OC4(CC(O)C(OC5CC(OC6CC(C)(NO)C(OC)C(C)O6)C(OC(=O)c6c(C)c(Cl)c(O)c(Cl)c6OC)C(C)O5)C(C)O4)OC3C(C)O2)C1O (stereo not shown) [Hydroxylaminoeverninomicin D Sodium salt, reference compound]
MIC [5]: 0.06 µg/mL
MIC [6]: 0.06 µg/mL
Peak Serum Levels in Dogs [8]: 20-30
MIC [10]: 0.06 µg/mL
MIC [11]: 0.03 µg/mL
MIC [12]: 0.06 µg/mL

COCC1OC(OC2OCC3OC4(OCC(O)C5OCOC54)OC3C2OC)C(OC)C(O)C1OC1OC(C)C(OC)C(OC2CC3(C)OC4(CC(O)C(OC5CC(OC6CC(C)(O)C(OC)C(C)O6)C(OC(=O)c6c(C)c(Cl)c(O)c(Cl)c6OC)C(C)O5)C(C)O4)OC3C(C)O2)C1O (stereo not shown) [everninomicin C-7]
inhibiting the growth of gram-positive bacteria [2]: antibacterial activity against gram-positive bacteria
antibacterial activity in vitro against gram-positive bacteria [2]: narrow spectrum antibacterial activity in vitro against gram-positive bacteria
antibacterial activity against resistant bacteria [3]: exhibit antibacterial activity against bacteria which are resistant to other antibacterial agents

COCC1OC(OC2OCC3OC4(OCC(O)C5OCOC54)OC3C2OC)C(OC)C(O)C1OC1OC(C)C(OC)C(OC2CC3(C)OC4(CC(O)C(OC5CC(OC6CC(C)(NO)C(OC)C(C)O6)C(OC(=O)c6c(C)c(Cl)c(O)c(Cl)c6OC)C(C)O5)C(C)O4)OC3C(C)O2)C1O (stereo not shown) [hydroxylaminoeverninomicin C]
antibacterial activity ([1]; U.S. Pat. No. 3,915,956): exhibit antibacterial activity

COCC1OC(OC2OCC3OC4(OCC(O)C5OCOC54)OC3C2OC)C(OC)C(O)C1OC1OC(C)C(OC)C(OC2CC3(C)OC4(CC(O)C(OC5CC(OC6CC(C)(N=O)C(OC)C(C)O6)C(OC(=O)c6c(C)c(Cl)c(O)c(Cl)c6OC)C(C)O5)C(C)O4)OC3C(C)O2)C1O (stereo not shown) [nitrosoeverninomicin C]
antibacterial activity ([1]; U.S. Pat. No. 3,915,956): exhibit antibacterial activity
